These results are taken from ChEMBL document CHEMBL5331114, “Discovery of Pyxinol Amide Derivatives Bearing Amino Acid Residues as Nonsubstrate Allosteric Inhibitors of P-Glycoprotein-Mediated Multidrug Resistance” (J Med Chem, 2023).

Series [1] in a line: Cytotoxicity against human KBV Cells assessed as cell survival rate at 10 uM incubated for 72 hrs by MTT assay. In kind it is functional. To be noted: read-out: Survival.
A short description of series [2]: Reversal of multidrug resistance in human KBV Cells assessed as increase in PTX-induced cytotoxicity by measuring cell survival rate at 10 uM incubated for 72 hrs in presence of paclitaxel by MTT assay relative to control. In kind it is functional. To be noted: read-out: Survival. (In general: Tetrazolium assays rely on reduction of a dye to a coloured formazan, in cell work by metabolically active cells.)

A short description of series [3]: Reversal of multidrug resistance in human KBV Cells assessed as increase in PTX-induced cytotoxicity by measuring cell survival rate at 5 uM incubated for 72 hrs in presence of paclitaxel by MTT assay relative to control. It counts as functional. The conditions noted are these: read-out: Survival.
Series [4] is described as follows: Drug accumulation in human KB cells at 10 uM incubated for 4 hrs by LC-MS/MS analysis. It counts as ADME, cell-based.
Series [5] is described as follows: Drug accumulation in human KBV cells at 10 uM incubated for 4 hrs by LC-MS/MS analysis. In kind it is ADME, cell-based.
Series [6] is described as follows: Reversal of multidrug resistance in human KBV Cells assessed as reversal fold of paclitaxel IC50 at 5 uM incubated for 72 hrs in presence of paclitaxel by MTT assay. It counts as functional.
Series [7] can be described thus: Reversal of multidrug resistance in human KBV Cells assessed as reversal fold of paclitaxel IC50 at 10 uM incubated for 72 hrs in presence of paclitaxel by MTT assay. In kind it is functional.
Series [8] in a line: Induction of cell cycle arrest in human KBV cells assessed as accumulation of cells at Sub-G1 phase at 10 uM incubated for 24 hrs by flow cytometry analysis (reference value: 1.24 +/- 0.14%). In kind it is functional. (In general: Flow cytometry measures light scatter and fluorescence of single cells or particles in a stream.)
Series [9] in a line: Induction of cell cycle arrest in human KBV cells assessed as accumulation of cells at G1-G0 phase at 10 uM incubated for 24 hrs by flow cytometry analysis (reference value: 62.34 +/- 0.24%). In kind it is functional.
Series [10] in a line: Induction of cell cycle arrest in human KBV cells assessed as accumulation of cells at S phase at 10 uM incubated for 24 hrs by flow cytometry analysis (reference value: 12.42 +/- 0.41%). In kind it is functional.
Series [11] is described as follows: Induction of cell cycle arrest in human KBV cells assessed as accumulation of cells at G2-M phase at 10 uM incubated for 24 hrs by flow cytometry analysis (reference value: 24.94 +/- 0.21%). In kind it is functional.
Series [12] is described as follows: Induction of Ptx-mediated cell cycle arrest in human KBV cells assessed as accumulation of cells at Sub-G1 phase at 10 uM incubated for 24 hrs in presence of paclitaxel by flow cytometry analysis (reference value: 1.21 +/- 0.3%). It counts as functional.
A short description of series [13]: Induction of Ptx-mediated cell cycle arrest in human KBV cells assessed as accumulation of cells at G1-G0 phase at 10 uM incubated for 24 hrs in presence of paclitaxel by flow cytometry analysis (Rvb =57.76 +/- 0.78%). It counts as functional.
Series [14] in a line: Induction of Ptx-mediated cell cycle arrest in human KBV cells assessed as accumulation of cells at S phase at 10 uM incubated for 24 hrs in presence of paclitaxel by flow cytometry analysis (Rvb =16.63 +/- 0.4%). It counts as functional.
Series [15] is described as follows: Induction of Ptx-mediated cell cycle arrest in human KBV cells assessed as accumulation of cells at G2-M phase at 10 uM incubated for 24 hrs in presence of paclitaxel by flow cytometry analysis (Rvb =25.34 +/- 0.92%). It counts as functional.

Turning to `CC(C)(C)OC(=O)NCCCCCC(=O)N[C@H]1CC[C@]2(C)[C@H]3C[C@@H](O)[C@@H]4C([C@]5(C)CC[C@H](C(C)(C)O)O5)CC[C@@]4(C)[C@]3(C)CC[C@H]2C1(C)C` (some centres not stated), the viability at 10 µM in series [1] is 98%; in series [2], 36%. For the same compound, in series [3], the viability at 5 µM came to 44%. Further, the Drug uptake result in series [4] and in series [5] was “Not Active” each time.

On to `CC(C)(C)OC(=O)N[C@@H](Cc1ccccc1)C(=O)N[C@H]1CC[C@]2(C)[C@H]3C[C@@H](O)[C@@H]4[C@@H]([C@]5(C)CC[C@H](C(C)(C)O)O5)CC[C@@]4(C)[C@]3(C)CC[C@H]2C1(C)C`, for which the viability at 10 µM in [1] came to 104%; in series [2] it was 24%. Also, the viability at 5 µM in [3] turned out to be 30%. Moreover, the “fold change (FC)” value in series [6] worked out at 22; in series [7] it was 82.

As for `CC(C)(C)OC(=O)N[C@@H](Cc1ccc(OC(C)(C)C)cc1)C(=O)N[C@H]1CC[C@]2(C)[C@H]3C[C@@H](O)[C@@H]4[C@@H]([C@]5(C)CC[C@@H](C(C)(C)O)O5)CC[C@@]4(C)[C@]3(C)CC[C@H]2C1(C)C`, the viability at 10 µM was found to be 85% in series [1] and 19% in [2]. Further, the viability at 5 µM in series [3] turned out to be 30%. The “fold change (FC)” value in series [6] is recorded as 35; in series [7], 209. Besides, the Drug uptake result in series [4] and in series [5] was “Not Active” each time.

For `CC(C)(O)[C@H]1CC[C@@](C)([C@H]2CC[C@]3(C)[C@@H]2[C@H](O)C[C@@H]2[C@@]4(C)CC[C@H](NC(=O)[C@@H](N)Cc5ccccc5)C(C)(C)[C@@H]4CC[C@]23C)O1`, the values for the viability at 10 µM in series [1] and in series [2] were 85% and 29%, respectively. For the same compound, the viability at 5 µM in series [3] came to 33%. Further, the “fold change (FC)” value in series [6] stood at 56; in series [7], 321.

With `CC(C)(C)OC(=O)N1CCC[C@H]1C(=O)O[C@H]1CC[C@]2(C)[C@H]3C[C@@H](O)[C@@H]4[C@@H]([C@]5(C)CC[C@@H](C(C)(C)O)O5)CC[C@@]4(C)[C@]3(C)CC[C@H]2C1(C)C`, the viability at 10 µM worked out at 103% in [1] and 35% in [2]. In series [3], the viability at 5 µM was 66%.

Consider `COc1ccc(CCN(C)CCCC(C#N)(c2ccc(OC)c(OC)c2)C(C)C)cc1OC` (configuration not stated), for which the viability at 10 µM in series [2] was 41%. Besides, the Activity in series [8] is reported as 1.07%; in series [9] it was 58.36%; in [10], 14.59%; in series [11], 26.78%; in [12] it was 8.56%; in series [13] it was 39.76%. The Activity in [14] came to 21.71%; in series [15], 37.67%.

Take `CC(C)[C@H](N)C(=O)N[C@H]1CC[C@]2(C)[C@H]3C[C@@H](O)[C@@H]4[C@@H]([C@]5(C)CC[C@H](C(C)(C)O)O5)CC[C@@]4(C)[C@]3(C)CC[C@H]2C1(C)C`: the viability at 10 µM stood at 74% in series [1] and 32% in series [2]. For the same compound, the viability at 5 µM in series [3] amounted to 34%. Further, the “fold change (FC)” value in [6] was 36; in [7] it was 46.

For the compound `CC(C)(C)OC(=O)N[C@@H](Cc1ccccc1)C(=O)N[C@H]1CC[C@]2(C)[C@H]3C[C@@H](O)[C@@H]4[C@@H]([C@]5(C)CC[C@@H](C(C)(C)O)O5)CC[C@@]4(C)[C@]3(C)CC[C@H]2C1(C)C`, the viability at 10 µM in [1] came out at 102%; in [2], 24%. Moreover, the viability at 5 µM in [3] came out at 31%. Besides, the “fold change (FC)” value in series [6] was 21; in [7], 49.

For the compound `COc1cc2c(cc1OC)CN(CCc1ccc(NC(=O)c3cc(OC)c(OC)cc3NC(=O)c3cnc4ccccc4c3)cc1)CC2`, the “fold change (FC)” value in [6] turned out to be 113; in series [7] it was 150.

With `CC(C)(O)[C@@H]1CC[C@@](C)([C@H]2CC[C@]3(C)[C@@H]2[C@H](O)C[C@@H]2[C@@]4(C)CC[C@H](OC(=O)[C@@H]5CCCN5)C(C)(C)[C@@H]4CC[C@]23C)O1`, the viability at 10 µM in series [1] was 113%; in series [2], 116%. Moreover, the viability at 5 µM in [3] was 113%.

As to `CC(C)(O)[C@H]1CC[C@@](C)([C@H]2CC[C@]3(C)[C@@H]2[C@H](O)C[C@@H]2[C@@]4(C)CC[C@H](N)C(C)(C)[C@@H]4CC[C@]23C)O1`, the viability at 10 µM is 98% in series [1] and 40% in series [2]. Also, the viability at 5 µM in [3] came to 44%.

Consider `CC(C)(C)OC(=O)C[C@H](NC(=O)OC(C)(C)C)C(=O)N[C@H]1CC[C@]2(C)[C@H]3C[C@@H](O)[C@@H]4[C@@H]([C@]5(C)CC[C@@H](C(C)(C)O)O5)CC[C@@]4(C)[C@]3(C)CC[C@H]2C1(C)C`, for which the viability at 10 µM in series [1] was determined as 94%; in series [2], 28%. Further, in [3], the viability at 5 µM is 33%. Moreover, the “fold change (FC)” value in series [6] is on record as 61; in [7] it was 130. The Drug uptake result in [4] and in series [5] was “Not Active” in each case.

Take `CC(C)[C@H](N)C(=O)N[C@H]1CC[C@]2(C)[C@H]3C[C@@H](O)[C@@H]4[C@@H]([C@]5(C)CC[C@@H](C(C)(C)O)O5)CC[C@@]4(C)[C@]3(C)CC[C@H]2C1(C)C`: the viability at 10 µM came to 79% in [1] and 52% in series [2]. The viability at 5 µM in series [3] turned out to be 81%.
